Three compounds from publication PMC8305664, “Knockdown of a β-Adrenergic-Like Octopamine Receptor Affects Locomotion and Reproduction of Tribolium castaneum” (International Journal of Molecular Sciences, 2021) can be followed below.

For the assay, the target named is T1, TcOctβ2R (β-adrenergic-like octopamine receptor) (Tribolium castaneum, UniProt N1NSX1).
T1 construct: full ORF (411 amino acids), pcDNA3.1(+), transiently expressed in HEK 293 cells
T1 sequence (N1NSX1 1-411): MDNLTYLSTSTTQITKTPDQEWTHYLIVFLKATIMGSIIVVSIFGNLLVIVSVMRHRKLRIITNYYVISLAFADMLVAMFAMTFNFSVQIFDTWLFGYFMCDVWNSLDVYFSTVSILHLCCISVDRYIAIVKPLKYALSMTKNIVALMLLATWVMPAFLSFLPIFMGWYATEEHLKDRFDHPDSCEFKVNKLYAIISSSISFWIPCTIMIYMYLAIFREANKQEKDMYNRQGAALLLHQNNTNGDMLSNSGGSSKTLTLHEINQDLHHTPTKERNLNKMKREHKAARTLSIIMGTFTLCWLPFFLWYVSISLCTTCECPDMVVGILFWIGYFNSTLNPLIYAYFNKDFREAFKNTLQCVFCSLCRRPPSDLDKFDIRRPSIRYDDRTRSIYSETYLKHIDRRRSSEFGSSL
Briefly: GloSensor cAMP assay in HEK […] cells expressing the receptor (agonist). The class given is cell-based.

For orientation: EC50 means the concentration giving half of the maximal effect. Low readings indicate a more potent agent, high ones a less potent agent.

The compound `c1ccc2c(CC3=NCCN3)cccc2c1` [naphazoline] showed an EC50 of 7.1 nM. The figure for `NCC(O)c1ccc(O)cc1` (stereo not drawn) [octopamine] is 28 nM; for `NCCc1ccc(O)cc1` [tyramine] it is 200 nM.
